Our source for the Ki values is patent US8461328B2, “Tricyclic heterocyclic compounds, compositions and methods of use thereof” (Genentech, Inc., priority 2010, dated 2013).

Common to all, as to format: biochemical
For test [1], the target named is T1, TYK2 (Homo sapiens, UniProt P29597).
T1 construct: made in house; host or cells: SF9 insect cells (baculovirus)
T1 sequence (P29597 873-1187): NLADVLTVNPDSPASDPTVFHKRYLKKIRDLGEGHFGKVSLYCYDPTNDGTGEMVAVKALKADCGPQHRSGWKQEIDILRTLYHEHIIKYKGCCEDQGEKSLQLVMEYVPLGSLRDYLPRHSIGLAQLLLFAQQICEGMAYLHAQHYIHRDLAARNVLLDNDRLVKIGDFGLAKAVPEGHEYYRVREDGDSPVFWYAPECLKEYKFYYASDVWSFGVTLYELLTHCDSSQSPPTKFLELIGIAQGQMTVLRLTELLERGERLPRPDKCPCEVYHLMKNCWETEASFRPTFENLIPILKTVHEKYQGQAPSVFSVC
Kind of test: TYK2 inhibition (Table 4).

The target in test [2] is T2, JAK2 (Homo sapiens, UniProt O60674).
T2 construct: made in house; host or cells: SF9 insect cells (baculovirus)
T2 sequence (O60674 812-1132): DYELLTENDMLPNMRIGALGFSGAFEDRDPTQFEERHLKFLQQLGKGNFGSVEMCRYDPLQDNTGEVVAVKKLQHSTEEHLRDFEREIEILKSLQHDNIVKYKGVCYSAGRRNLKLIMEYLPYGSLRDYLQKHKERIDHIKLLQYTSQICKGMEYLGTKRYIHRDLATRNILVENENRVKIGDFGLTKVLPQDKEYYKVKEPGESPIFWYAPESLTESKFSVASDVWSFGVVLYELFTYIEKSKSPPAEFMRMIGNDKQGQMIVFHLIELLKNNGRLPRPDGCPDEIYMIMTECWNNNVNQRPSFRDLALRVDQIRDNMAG
Kind of test: JAK2 inhibition (Table 4).

In test [3] the target is T3, JAK3 (Homo sapiens, UniProt P52333).
T3 construct: made in house; host or cells: SF9 insect cells (baculovirus)
T3 sequence (P52333 783-1124): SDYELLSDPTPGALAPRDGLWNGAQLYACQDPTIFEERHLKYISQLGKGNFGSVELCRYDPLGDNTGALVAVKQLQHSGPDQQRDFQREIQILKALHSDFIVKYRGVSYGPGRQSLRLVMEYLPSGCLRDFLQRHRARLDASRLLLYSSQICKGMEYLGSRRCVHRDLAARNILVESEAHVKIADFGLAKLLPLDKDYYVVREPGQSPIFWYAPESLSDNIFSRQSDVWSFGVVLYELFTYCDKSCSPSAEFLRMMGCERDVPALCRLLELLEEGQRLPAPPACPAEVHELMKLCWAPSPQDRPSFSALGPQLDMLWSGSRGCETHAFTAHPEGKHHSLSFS
The test can be described thus: JAK3 inhibition (Table 4). The following applies: read-out: JAK3 Ki.

Where two headings read alike, the source gives them in different places.

In the case of `CS(=O)(=O)N[C@H]1CC[C@H](n2cnc3cnc4[nH]ccc4c32)CC1` [Example 105, Trans N-[4-(6H-1,3,5,6-tetraaza-as-indacen-1-yl)-cyclohexyl]-methanesulfonamide], the Ki in test [1] was 16.4 nM; in test [2] (read-out: JAK2 Ki) it was 3.53 nM; in test [3], 23.1 nM.

For `COC(=O)N(C)[C@H]1CC[C@H](n2cnc3cnc4[nH]ccc4c32)CC1` [Example 143, Trans Methyl-[4-(6H-1,2,3,5,6-tetraaza-as-indacen-1-yl)-cyclohexyl]-carbamic acid methyl ester], the results for the Ki in test [1], in test [2] (read-out: JAK2 Ki) and in test [3] were 51.2 nM, 7.03 nM and 182 nM, respectively.

On to `N#CCCN[C@H]1CC[C@H](n2cnc3cnc4[nH]ccc4c32)CC1` [Example 275, 3-[4-(6H-1,3,5,6-Tetraaza-as-indacen-1-yl)-cyclohexylamino]-propionitrile], for which the Ki was 36.4 nM in test [1], 11.5 nM in test [2] (read-out: JAK2 Ki) and 47.4 nM in test [3].

`N[C@H]1CC[C@@H](n2cnc3cnc4[nH]ccc4c32)CC1` [Example 289, 4-(6H-1,3,5,6-Tetraaza-as-indacen-1-yl)-cyclohexylamine]: the values for the Ki in test [1], in test [2] (read-out: JAK2 Ki) and in test [3] were 107 nM, 80.2 nM and 79.5 nM, respectively.

In the case of `N#CCC(=O)N1CCC(n2cnc3cnc4[nH]ccc4c32)CC1` [Example 33, 3-Oxo-3-[4-(6H-1,3,5,6-tetraaza-as-indacen-1-yl)-piperidin-1-yl]propionitrile], the inhibition constant (Ki) in test [1] is 143 nM; in test [2] (read-out: JAK2 Ki), 35 nM; in test [3], 162 nM.

Regarding `Cc1nc2cnc3[nH]ccc3c2n1[C@H]1CC[C@@H](C(C)(C)O)CC1` [Example 958, Cis-2-[4-(2-Methyl-6H-1,3,5,6-tetraaza-as-indacen-1-yl)-cyclohexyl]-propan-2-ol], the Ki in test [1] came out at 14.3 nM; in test [2] (read-out: JAK2 Ki), 5.13 nM; in test [3], 36.8 nM.

Take `N#C[C@@H]1CCN([C@H]2CC[C@H](n3cnc4cnc5[nH]ccc5c43)CC2)C1` [Example 596, Trans (R)-1-[4-(6H-1,2,3,5,6-tetraaza-as-indacen-1-yl)-cyclohexyl]-pyrrolidine-3-carbonitrile]: the Ki came out at 17.4 nM in test [1], 5.51 nM in test [2] (read-out: JAK2 Ki) and 67.4 nM in test [3].

On to `CC1(n2cnc3cnc4[nH]ccc4c32)CCN(S(C)(=O)=O)CC1` [Example 332, 1-(1-Methanesulfonyl-4-methyl-piperidin-4-yl)-1,6-dihydro-1,3,5,6-tetraaza-as-indacene], for which the Ki in test [1] is 31.1 nM; in test [2] (read-out: JAK2 Ki) it was 7.95 nM; in test [3], 71.4 nM.

As to `CN1CCC[C@@H]1C(=O)N1CCC(n2cnc3cnc4[nH]ccc4c32)CC1` [Example 252, ((R)-1-Methyl-pyrrolidin-2-yl)-[4-(6H-1,3,5,6-tetraaza-as-indacen-1-yl)-piperidin-1-yl]-methanone], the Ki was determined as 973 nM in test [1], 285 nM in test [2] (read-out: JAK2 Ki) and 1280 nM in test [3].

Take `CS(=O)(=O)NCc1nc2cnc3[nH]ccc3c2n1C1CCCCC1` [Example 200, N-(1-Cyclohexyl-1,6-dihydro-1,2,3,5,6-tetraaza-as-indacen-2-ylmethyl)-methanesulfonamide]: the Ki in test [1] was 19.3 nM; in test [2] (read-out: JAK2 Ki), 45.4 nM; in test [3], 75.1 nM.

`CC(C)(C)OC(=O)N[C@H]1CC[C@@H](n2cnc3cnc4[nH]ccc4c32)CC1` [Example 288, [4-(6H-1,3,5,6-Tetraaza-as-indacen-1-yl)-cyclohexyl]-carbamic acid tert-butyl ester]: the Ki in test [1] turned out to be 110 nM; in test [2] (read-out: JAK2 Ki), 11.9 nM; in test [3], 206 nM.

`CC(=O)NCc1nc2cnc3[nH]ccc3c2n1C1CCCCC1` [Example 918, N-(1-Cyclohyl-1,6-dihydro-1,3,5,6-tetraaza-as-indacen-2-ylmethyl)-acetamide]: the Ki in test [1] turned out to be 30.1 nM; in test [2] (read-out: JAK2 Ki), 93.9 nM; in test [3] it was 60 nM.

For the molecule `CS(=O)(=O)NCc1nc2cnc3[nH]ccc3c2n1C1CC2CCC1C2` (stereo not drawn) [Example 894, N-(1-Bicyclo[2.2.1]hept-2-yl-1,6-dihydro-1,3,5,6-tetraaza-as-indacen-2-ylmethyl)-methanesulfonamide], the Ki came out at 6.46 nM in test [1], 6.18 nM in test [2] (JAK2 Ki) and 37.4 nM in test [3].

Regarding `c1ncc(CN2CCC(n3cnc4cnc5[nH]ccc5c43)CC2)cn1` [Example 52, 1-(1-Pyrimidin-5-ylmethyl-piperidin-4-yl)-1,6-dihydro-1,3,5,6-tetraaza-as-indacene], the inhibition constant (Ki) in test [1] was 56 nM; in test [2] (read-out: JAK2 Ki) it was 3.15 nM; in test [3] it was 4.14 nM.

`N[C@H]1CC[C@H](n2cnc3cnc4[nH]ccc4c32)CC1` [Example 108, Trans 4-(6H-1,3,5,6-tetraaza-as-indacen-1-yl)-cyclohexylamine]: the values for the Ki in test [1], in test [2] (read-out: JAK2 Ki) and in test [3] were 75.2 nM, 24.6 nM and 35 nM, respectively.

For the molecule `CC(C)(C)OC(=O)NC1CCC(n2cnc3cnc4[nH]ccc4c32)C1` (racemic) [Example 137, Racemic trans [3-(6H-1,2,3,5,6-Tetraaza-as-indacen-1-yl)-cyclopentyl]-carbamic acid tert-butyl ester], the Ki in test [1] is 120 nM; in test [2] (read-out: JAK2 Ki), 9.51 nM; in test [3] it was 37.1 nM.

Turning to `CC(C)(C)OC(=O)N[C@@H]1CC[C@@H](n2cnc3cnc4[nH]ccc4c32)C1` [Example 134, [(1R,3R)-3-(6H-1,2,3,5,6-Tetraaza-as-indacen-1-yl)-cyclopentyl]-carbamic acid tert-butyl ester], the Ki came out at 62.4 nM in test [1], 4.21 nM in test [2] (read-out: JAK2 Ki) and 32.8 nM in test [3].

Turning to `N#Cc1cccc(CN[C@H]2CC[C@H](n3cnc4cnc5[nH]ccc5c43)CC2)c1` [Example 219, 3-{[4-(6H-1,3,5,6-Tetraaza-as-indacen-1-yl)-cyclohexylamino]-methyl}-benzonitrile], the Ki in test [1] was found to be 37.3 nM; in test [2] (read-out: JAK2 Ki), 11.2 nM; in test [3] it was 89 nM.

As for `CCC(O)c1nc2cnc3[nH]ccc3c2n1C1CCCCC1` (stereo not drawn) [Example 876, 1-(1-Cyclohexyl-1,6-dihydro-1,3,5,6-tetraaza-as-indacen-2-yl)-propan-1-ol], the inhibition constant (Ki) came out at 15.3 nM in test [1] and 35.7 nM in test [3].

As for `CC(C)(C)OC(=O)N[C@H]1CC[C@@H](n2cnc3cnc4[nH]ccc4c32)C1` [Example 136, [(1S,3R)-3-(6H-1,2,3,5,6-Tetraaza-as-indacen-1-yl)-cyclopentyl]-carbamic acid tert-butyl ester], the Ki came to 147 nM in test [1], 18.3 nM in test [2] (read-out: JAK2 Ki) and 291 nM in test [3].

Regarding `C[C@@H](O)c1nc2cnc3[nH]ccc3c2n1C1CCC(CCC#N)CC1` (stereo partly drawn) [Example 1007, 3-{4-[2-((R)-1-Hydroxy-ethyl)-6H-1,3,5,6-tetraaza-as-indacen-1-yl]-cyclohexyl}-propionitrile], the Ki in test [3] was determined as 18.5 nM.

With `COC(=O)NC1CCC(n2cnc3cnc4[nH]ccc4c32)C1` (racemic) [Example 734, [3-(6H-1,3,5,6-Tetraaza-as-indacen-1-yl)-cyclopentyl]-carbamic acid methyl ester], the figures for the Ki in test [1], in test [2] (read-out: JAK2 Ki) and in test [3] were 28.5 nM, 8.06 nM and 54.3 nM, respectively.

In the case of `CN1CCCCC1C(=O)N1CCC(n2cnc3cnc4[nH]ccc4c32)CC1` (single isomer, unassigned) [Example 196a, (1-Methyl-piperidin-2-yl)-[4-(6H-1,2,3,5,6-tetraaza-as-indacen-1-yl)-piperidin-1-yl]-methanone], the inhibition constant Ki in test [2] (read-out: JAK2 Ki) was 1340 nM.

As for `C[C@@H](O)c1nc2cnc3[nH]ccc3c2n1[C@@H]1CCCN(CCC#N)C1` [Example 362, 3-{(R)-3-[2-((R)-1-Hydroxy-ethyl)-6H-1,3,5,6-tetraaza-as-indacen-1-yl]-piperidin-1-yl}-propionitrile], the Ki in test [3] came to 461 nM.

As for `O[C@H]1CC[C@H](n2nnc3cnc4[nH]ccc4c32)CC1` [Example 546, trans 4-(6H-1,2,3,5,6-Pentaaza-as-indacen-1-yl)-cyclohexanol], in test [3], the Ki came to 140 nM.

`COC(=O)N[C@H]1CC[C@H](n2cnc3cnc4[nH]ccc4c32)CC1` [Example 311, [4-(6H-1,3,5,6-Tetraaza-as-indacen-1-yl)-cyclohexyl]-carbamic acid methyl ester]: the figures for the Ki in test [1], in test [2] (read-out: JAK2 Ki) and in test [3] were 59.8 nM, 14.1 nM and 91.6 nM, respectively.

For `N#CCCN[C@H]1CC[C@H](n2nnc3cnc4[nH]ccc4c32)CC1` [Example 280, 3-[4-(6H-1,2,3,5,6-Pentaaza-as-indacen-1-yl)-cyclohexylamino]-propionitrile], the Ki in test [3] turned out to be 127 nM.

With `C[C@@H](O)c1nc2cnc3[nH]ccc3c2n1[C@@H]1CCCN(CCC#N)C1` [Example 663, 3-{(R)-3-[2-((R)-1-Hydroxy-ethyl)-6H-1,2,3,5,6-tetraaza-as-indacen-1-yl]-piperidin-1-yl}-propionitrile], the Ki in test [3] is 188 nM.

Regarding `c1cc2c(ncc3ncn(C4CCNCC4)c32)[nH]1` [Example 28, 1-Piperidin-4-yl-1,6-dihydro-1,3,5,6-tetraaza-as-indacene], the Ki was 80.1 nM in test [1] and 217 nM in test [3].

As for `N[C@H]1CC[C@H](n2nnc3cnc4[nH]ccc4c32)CC1` [Example 279, 4-(6H-1,2,3,5,6-Pentaaza-as-indacen-1-yl)-cyclohexylamine], the inhibition constant (Ki) in test [3] was found to be 239 nM.

On to `CO[C@H]1CC[C@H](n2c([C@@H](C)O)nc3cnc4[nH]ccc4c32)CC1` [Example 635, Trans (R)-1-[1-(4-methoxy-cyclohexyl)-1,6-dihydro-1,2,3,5,6-tetraaza-as-indacen-2-yl]-ethanol], for which the Ki in test [3] turned out to be 371 nM.
